# Experimental data reported in patent publication US9750789B2, “Use of matrix metalloproteinase inhibitors to treat tuberculosis” (priority 2011, dated 2017).
# “Also recorded” adds a separate entry of the source.
# Experiments:
# MMP-1 [1] = test: MMP-1 secretion by stimulated primary human monocytes; format: cell-based; details: Pam3Cys 5 μg/ml, 24 h
# bioluminescent Mtb [2] = test: microbe, parasite or virus in culture; format: cell-based, Mycobacterium tuberculosis
# [3] = MacArthur et al 1978; cited from earlier work
# [4] = test system: primary human bronchial epithelial cells; test: Total protein in bronchial epithelial cell culture supernatants (Bradford); details: Bradford analysis, data not shown
# bioluminescent Mtb [5] = test: MIC determination with bioluminescent Mtb; format: cell-based, Mycobacterium tuberculosis
# [6] = test system: primary human macrophages; test: Total protein accumulation in cell culture supernatants (Bradford); details: macrophage supernatants, doxycycline groups
# MMP-1 [7] = details: Rand et al 2009; cited from earlier work
molecule,measurement,setting,value
Pam3Cys,MMP-1 secretion,MMP-1 [1],increased; also recorded: up-regulated MMP-1 equivalently to live Mtb
"C[C@H]1c2cccc(O)c2C(=O)C2=C(O)[C@]3(O)C(=O)C(C(N)=O)=C(O)[C@@H](N(C)C)[C@@H]3[C@@H](O)[C@@H]21 [Doxycycline, doxycycline]",MBC/MIC ratio,bioluminescent Mtb [2],16
same,MBC,"bioluminescent Mtb [2]; Mycobacterium tuberculosis, 72 h, luminescence monitored over 3 days, read-out: minimum bactericidal concentration (MBC)",40 µg/mL
same,peak concentration in serum,[3],3.2 µg/mL
same,total protein in cell culture supernatants,[4],no different between groups
same,drop in relative light units,"bioluminescent Mtb [5]; 2.5 μg/ml doxycycline, at 2 days",1 log
same,MIC,"bioluminescent Mtb [5]; Mycobacterium tuberculosis, bioluminescent Mtb, confirmed by Resazurin, read-out: minimum inhibitory concentration (MIC)",2.5 µg/mL
same,protein accumulation in the cell culture supernatants,[6],the same in each group
Nc1ccc(C(=O)O)c(O)c1 [P-amino-salicylic acid],MMP-1 secretion by Mtb-infected macrophages,MMP-1 [7],inhibits
